{"source": "patent US20160304881A1", "about": "“DDR1 ANTAGONIST OR AN INHIBITOR OF DDR1 GENE EXPRESSION FOR USE IN THE PREVENTION OR TREATMENT OF CRESCENTIC GLOMERULONEPHRITIS” (INSERM (INSTITUT NATIONAL DE LA SANTE ET DE LA RECHERCHE …, priority 2011, published 2016)", "origin": "cited, not measured here", "biological_target": "DDR1 (Homo sapiens, UniProt Q08345)", "sequence (Q08345 19-913)": "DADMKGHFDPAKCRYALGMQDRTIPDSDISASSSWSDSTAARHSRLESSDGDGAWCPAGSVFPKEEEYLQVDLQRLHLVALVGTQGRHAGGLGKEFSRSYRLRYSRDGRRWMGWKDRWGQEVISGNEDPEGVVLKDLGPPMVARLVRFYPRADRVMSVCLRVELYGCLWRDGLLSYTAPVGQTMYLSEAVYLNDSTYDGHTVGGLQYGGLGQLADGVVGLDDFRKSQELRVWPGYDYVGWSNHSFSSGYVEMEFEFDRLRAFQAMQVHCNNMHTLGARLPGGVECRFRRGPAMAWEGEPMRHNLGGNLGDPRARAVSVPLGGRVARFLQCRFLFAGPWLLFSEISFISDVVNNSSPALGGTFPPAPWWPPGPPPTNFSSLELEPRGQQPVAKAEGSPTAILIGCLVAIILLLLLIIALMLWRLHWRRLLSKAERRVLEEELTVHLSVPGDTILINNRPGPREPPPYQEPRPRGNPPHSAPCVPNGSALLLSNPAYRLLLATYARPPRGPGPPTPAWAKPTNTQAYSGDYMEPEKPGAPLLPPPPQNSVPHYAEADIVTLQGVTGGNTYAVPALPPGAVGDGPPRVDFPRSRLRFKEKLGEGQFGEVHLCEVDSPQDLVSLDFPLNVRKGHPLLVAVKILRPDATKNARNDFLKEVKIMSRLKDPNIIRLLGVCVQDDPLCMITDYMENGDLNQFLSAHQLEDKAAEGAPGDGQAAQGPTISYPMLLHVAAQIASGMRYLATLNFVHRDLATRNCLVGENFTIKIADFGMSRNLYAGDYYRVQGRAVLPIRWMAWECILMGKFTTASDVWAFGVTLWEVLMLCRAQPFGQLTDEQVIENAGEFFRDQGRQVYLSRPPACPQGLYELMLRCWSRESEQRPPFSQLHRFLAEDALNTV", "conditions": "described in Day et al. (2008)", "data": [{"smiles": "Cc1cn(-c2cc(NC(=O)c3ccc(C)c(Nc4nccc(-c5cccnc5)n4)c3)cc(C(F)(F)F)c2)cn1", "note": "[nilotinib, 4-methyl-N-[3-(4-methyl-1H-imidazol-1-yl)-5-(trifluoromethyl)phenyl]-3-[(4-pyridin-3-ylpyrimidin-2-yl)amino]benzamide]", "values": [{"measurement": "collagen-induced DDR1 activation", "value": "inhibitors of collagen-induced DDR1 activation"}]}, {"smiles": "Cc1nc(Nc2ncc(C(=O)Nc3c(C)cccc3Cl)s2)cc(N2CCN(CCO)CC2)n1", "note": "[dasatinib, N-(2-chloro-6-methylphenyl)-2-[[6-[4-(2-hydroxyethyl)-1-piperazinyl]-2-methyl-4-pyrimidinyl]amino]-5-thiazole carboxamide]", "values": [{"measurement": "collagen-induced DDR1 activation", "value": "inhibitors of collagen-induced DDR1 activation"}]}]}
